Literature values, collected in patent EP3332769A1, “SOLID ORAL PHARMACEUTICAL COMPOSITIONS OF TICAGRELOR” (Sanovel Ilac Sanayi ve Ticaret A.S., priority 2016, dated 2018).
Converted amounts (≈) assume the structure as drawn.

Details: in water

aqueous solubility: 0.01 mg/mL (≈ 19.1 µM)
Structure (SMILES): CCCSc1nc(N[C@@H]2C[C@H]2c2ccc(F)c(F)c2)c2nnn([C@@H]3C[C@H](OCCO)[C@@H](O)[C@H]3O)c2n1 [Ticagrelor, (1 S,2S,3R,5S)-3-[7-[(1 R,2S)-2-(3,4-Difluorophenyl)cyclopropylamino]-5-(propylthio)-3H-[1,2,3]triazolo[4,5-d]pyrimidin-3-yl] -5-(2-hydroxyethoxy) cyclopentane-1,2-diol]
